Measured values taken from patent publication US10906977B2, “Enhancing the therapeutic activity of immune checkpoint inhibitor” (Maine Medical Center Research Institute, priority 2016, dated 2021).

System: P38MAPK
Assay: Phosphorylated P38MAPK in CAM tissue lysates (Western blot)
Type: in vivo, chick
Details: peptide treated CAMs; FIG. 6B
Procedure: The chick chorioallantoic membrane (CAM) assays were carried out with some modifications (19). […] Filter discs either non-treated (inflammation assays) pretreated (angiogenesis assays) with cortisone acetate (3.0 mg/ml) containing RPMI only or FGF-2 (40 ng). CAMs were either non-treated or treated topically with Mab XL313, XL166 or a non-specific control antibody (10 μg/embryo every 24 h for three consecutive treatments). […] At the end of the incubation period the embryos were sacrificed and the CAM tissues were analyzed. Angiogenesis was quantified by counting the number of angiogenic branching blood vessels within the area of the filter disc. The angiogenic index was determined by subtracting the mean number of blood vessel branch points from untreated CAMs from each experimental condition. Eight to twelve embryos were used per condition and experiments were repeated at least three times.
Whole cell and CAM tissue lysates were collected in RIPA buffer supplemented with 1× protease inhibitor and 1× phosphatase inhibitor and were run on polyacrylamide gels using denaturing conditions. Prior to loading the gels, 6× sample buffer was added to each of the lysates (final concentration 1×) and boiled for five minutes. Twenty to 50 μg of total protein were loaded into each lane. […] Western blot bands were quantified using Image J software based on pixel intensity.

CQGPRGDKGEC [Mab P-2]
increase in phosphorylation of P38MAPK in CAM tissues as compared to controls: 4 fold
